IC50 data for seven compounds are collected here from patent US20260226010A1, “HETEROCYCLIC COMPOUNDS AS PI3Ka INHIBITORS” (Pikavation Therapeutics, Inc., priority 2023, published 2026).

For the test, the system named is T47D (PIK3CA H1047R) cells. Description: pS473 AKT assay. The following applies: Homo sapiens; pSer473 AKT in T47D (PIK3CA H1047R) cells, 2 h treatment, DMEM with 2.5% FBS; read-out: T47D_IC50. The class given is cell-based. Here is the method: T47D (PIK3CA H1047R) cells were cultured using 10-cm petri dishes with recommended medium plus 10% fetal bovine serum. One day before the assay, cells were seeded in 96-well plates. After overnight incubation, the medium was changed to DMEM with 2.5% fetal bovine serum (FBS) and the cells were treated with different concentrations of the compounds for 2 h. Cells were then fixed using 4% paraformaldehyde at room temperature for 20 min. Aspirate 4% paraformaldehyde, and wash cells using 1× regular phosphate buffered saline 3 times, 5 min each. Aspirate any residual phosphate buffered saline and block cells using 10% goat serum containing 1% bovine serum albumin and 0.3% Triton X-100 at room temperature for 1 h. Without any additional washing, primary antibodies (rabbit anti-pSer473 AKT) were diluted using blocking buffer and added at a final volume of 50 microliter per well. Keep assay plates with primary antibodies overnight at 4° C. Wash cells using 1× regular phosphate buffered saline 3 times, 5 min each. After the final wash, incubate cells with horseradish peroxidase-conjugated secondary antibodies (goat Anti-rabbit IgG) diluted using the same blocking buffer at room temperature for 1 h. Wash cells thoroughly using 1× regular phosphate buffered saline 3 times, 5 min each. Aspirate any residual phosphate buffered saline. Add Super-Signal ELISA Pico Chemiluminescent Substrate at a final volume of 100 microliter per well. Read plates on i3× Multi-Mode Microplate Reader and calculate IC50 values using GraphPad Prism software.
Turning to `Cc1cc2c(c(C(C)Nc3ccccc3C(=O)O)c1)CC1(CCc3ccccc31)N(C)C2=O` (stereo not shown) [Example 1, 2-[1-(2,7-Dimethyl-1-oxo-spiro[4H-isoquinoline-3,1′-indane]-5yl)ethylamino]benzoic acid], the IC50 is < 1000 nM.

On to `Cc1cc2c(c(C(C)Nc3ccc(C)nc3C(=O)O)c1)CC1(CCc3ccccc31)N(C)C2=O` (stereo not shown) [Example 2, 3-[1-(2,7-Dimethyl-1-oxo-spiro[4H-isoquinoline-3,1′-indane]-5-yl)ethylamino]-6-methyl-pyridine-2-carboxylic acid], for which the IC50 is < 1000 nM.

Take `Cc1cc2c(c(C(C)Nc3ccc(Cl)nc3C(=O)O)c1)CC1(CCc3ccccc31)N(C)C2=O` (stereo not shown) [Example 3, 6-Chloro-3-[1-(2,7-dimethyl-1-oxo-spiro[4H-isoquinoline-3,1′-indane]-5-yl)ethylamino]pyridine-2-carboxylic acid]: the IC50 is < 1000 nM.

As for `Cc1cc2c(c(C(C)Nc3ccccc3C(=O)O)c1)CC1(Cc3ccccc3C1)N(C)C2=O` (stereo not shown) [Example 4, 2-[1-(2,7-Dimethyl-1-oxo-spiro[4H-isoquinoline-3,2′-indane]-5-yl)ethylamino]benzoic acid], the IC50 fell in the range of 1000 to 5000 nM.

With `Cc1cc2c(c(C(C)Nc3ccc(C)nc3C(=O)O)c1)CC1(Cc3ccccc3C1)N(C)C2=O` (stereo not shown) [Example 5, 3-((1-(2′,7′-Dimethyl-1′-oxo-1,1′,3,4′-tetrahydro-2′H-spiro[indene-2,3′-isoquinolin]-5′-yl)ethyl)amino)-6-methylpicolinic acid], the IC50 fell in the range of 1000 to 5000 nM.

Turning to `Cc1cc2c(c(C(C)Nc3ccc(Cl)nc3-c3cnn(C)c3)c1)CC1(CCc3ccccc31)N(C)C2=O` (stereo not shown) [Example 6, 5-[1-[[6-Chloro-2-(1-methylpyrazol-4-yl)-3-pyridyl]amino]ethyl]-2,7-dimethyl-spiro[4H-isoquinoline-3,1′-indane]-1-one], the IC50 is < 1000 nM.

On to `Cc1cc2c(c(C(C)Nc3ccc(Cl)nc3-c3ccncc3F)c1)CC1(CCc3ccccc31)N(C)C2=O` (stereo not shown) [Example 7, 5-[1-[[6-Chloro-2-(3-fluoro-4-pyridyl)-3-pyridyl]amino]ethyl]-2,7-dimethyl-spiro[4H-isoquinoline-3,1′-indane]-1-one], for which the IC50 is < 1000 nM.
